Measurements as given in paper PMC8364686, “Safety, tolerability, pharmacokinetics and pharmacodynamics of single oral doses of BI 187004, an inhibitor of 11beta-hydroxysteroid dehydrogenase-1, in healthy male volunteers with overweight or obesity” (Clinical Diabetes and Endocrinology, 2021).

Assay: Plasma pharmacokinetics of BI 187004 after single oral doses (LC–MS/MS)
Conditions: male, human, plasma, po; for concentration at 6 h: planned time 6 h; for concentration at 8 h: planned time 8 h; for concentration at 10 h: planned time 10 h; for concentration at 12 h: planned time 12 h; for concentration at 36 h: planned time 36 h; for concentration at 48 h: planned time 48 h; for concentration at 72 h: planned time 72 h; for concentration at 96 h: planned time 96 h; for concentration at 0.5 h: planned time 0.5 h; for concentration at 1 h: planned time 1 h; for concentration at 1.5 h: planned time 1.5 h; for concentration at 2 h: planned time 2 h; for concentration at 2.5 h: planned time 2.5 h; for concentration at 3 h: planned time 3 h; for concentration at 4 h: planned time 4 h; for concentration at 5 h: planned time 5 h
[1] = 240 mg, BI 187004 plasma concentrations, gMean, 240 mg single oral
[2] = 360 mg, BI 187004 plasma concentrations, 360 mg single oral, individual subjects
[3] = 360 mg, BI 187004 plasma concentrations, Max, 360 mg single oral
[4] = 360 mg, BI 187004 plasma concentrations, Mean, 360 mg single oral
[5] = 360 mg, BI 187004 plasma concentrations, Median, 360 mg single oral
[6] = 360 mg, BI 187004 plasma concentrations, Min, 360 mg single oral
[7] = 360 mg, BI 187004 plasma concentrations, gMean, 360 mg single oral

Method: This was a randomized, double-blind, placebo-controlled, single rising dose study conducted at a single center in Germany. […] Follow-up on an ambulatory basis was performed between 11 and 15 days after study drug administration. […] At the time of use the oral solution for dosing was prepared using the PFOS and a co-supplied aqueous solvent containing HP-beta-cyclodextrin 100 mg/mL. The lowest dose level solutions were prepared by further dilution of the lower concentration solution with additional solvent.
For each accepted run, the acceptance criteria for the calibration standards and quality controls were met.

SMILES: N#Cc1ccc2c(c1)[C@H]1CCCN(C(=O)c3ccc4[nH]cnc4c3)[C@H]1C2 [BI 187004]
- concentration at 6 h [1]: 3.28 µM
- concentration at 8 h [1]: 2.65 µM
- concentration at 10 h [1]: 2.6 µM
- concentration at 12 h [1]: 1.99 µM
- concentration at 24 h (240 mg, BI 187004 plasma concentrations, gMean, 240 mg single oral, planned time 24 h): 2130 nM
- concentration at 36 h [1]: 885 nM
- concentration at 48 h [1]: 465 nM
- concentration at 72 h [1]: 118 nM
- concentration at 96 h [1]: 41.9 nM
- concentration at 24 h (240 mg, C24 gMean (%gCV), 240 mg single oral dose): 2130 nM
- AUC(0-inf) (360 mg): 191 µM·h
- AUC(0-t) (360 mg): 135 µM·h
- Cmax (360 mg): 13.4 µM
- Tmax (360 mg): 1 h
- Vd/F (360 mg): 110 L
- half-life (360 mg): 834 min
- concentration at 6 h [2]: 10.2 µM
- concentration at 8 h [2]: 9.51 µM
- concentration at 12 h [2]: 6.08 µM
- concentration at 0.5 h [3]: 16.8 µM
- concentration at 1 h [3]: 18.4 µM
- concentration at 1.5 h [3]: 15.9 µM
- concentration at 2 h [3]: 14.5 µM
- concentration at 2.5 h [3]: 14.6 µM
- concentration at 3 h [3]: 12.9 µM
- concentration at 4 h [3]: 12.2 µM
- concentration at 5 h [3]: 9.63 µM
- concentration at 6 h [3]: 10.2 µM
- concentration at 8 h [3]: 9.51 µM
- concentration at 10 h [3]: 7.68 µM
- concentration at 12 h [3]: 6.08 µM
- concentration at 24 h (360 mg, BI 187004 plasma concentrations, Max, 360 mg single oral, planned time 24 h): 4740 nM
- concentration at 36 h [3]: 1990 nM
- concentration at 48 h [3]: 1470 nM
- concentration at 72 h [3]: 516 nM
- concentration at 96 h [3]: 174 nM
- concentration at 0.5 h [4]: 11.5 µM
- concentration at 1 h [4]: 13.1 µM
- concentration at 1.5 h [4]: 11.5 µM
- concentration at 2 h [4]: 10.9 µM
- concentration at 2.5 h [4]: 10.3 µM
- concentration at 3 h [4]: 9.36 µM
- concentration at 4 h [4]: 9.59 µM
- concentration at 5 h [4]: 7.55 µM
- concentration at 6 h [4]: 7.25 µM
- concentration at 8 h [4]: 6.85 µM
- concentration at 10 h [4]: 5.5 µM
- concentration at 12 h [4]: 4.83 µM
- concentration at 24 h (360 mg, BI 187004 plasma concentrations, Mean, 360 mg single oral, planned time 24 h): 2840 nM
- concentration at 36 h [4]: 1480 nM
- concentration at 48 h [4]: 898 nM
- concentration at 72 h [4]: 301 nM
- concentration at 96 h [4]: 95 nM
- concentration at 0.5 h [5]: 11.6 µM
- concentration at 1 h [5]: 13.3 µM
- concentration at 1.5 h [5]: 11.6 µM
- concentration at 2 h [5]: 10.8 µM
- concentration at 2.5 h [5]: 10.2 µM
- concentration at 3 h [5]: 9.34 µM
- concentration at 4 h [5]: 10.3 µM
- concentration at 5 h [5]: 7.87 µM
- concentration at 6 h [5]: 6.45 µM
- concentration at 8 h [5]: 6.27 µM
- concentration at 10 h [5]: 5.62 µM
- concentration at 12 h [5]: 4.63 µM
- concentration at 24 h (360 mg, BI 187004 plasma concentrations, Median, 360 mg single oral, planned time 24 h): 2660 nM
- concentration at 36 h [5]: 1490 nM
- concentration at 48 h [5]: 869 nM
- concentration at 72 h [5]: 281 nM
- concentration at 96 h [5]: 81.6 nM
- concentration at 0.5 h [6]: 5.8 µM
- concentration at 1 h [6]: 7.17 µM
- concentration at 1.5 h [6]: 6.45 µM
- concentration at 2 h [6]: 6.66 µM
- concentration at 2.5 h [6]: 5.66 µM
- concentration at 3 h [6]: 6.3 µM
- concentration at 4 h [6]: 5.67 µM
- concentration at 5 h [6]: 4.81 µM
- concentration at 6 h [6]: 5.79 µM
- concentration at 8 h [6]: 5.06 µM
- concentration at 10 h [6]: 3.36 µM
- concentration at 12 h [6]: 3.78 µM
- concentration at 24 h (360 mg, BI 187004 plasma concentrations, Min, 360 mg single oral, planned time 24 h): 1790 nM
- concentration at 36 h [6]: 830 nM
- concentration at 48 h [6]: 375 nM
- concentration at 72 h [6]: 69.1 nM
- concentration at 96 h [6]: 16.8 nM
- concentration at 0.5 h [7]: 10.8 µM
- concentration at 1 h [7]: 12.6 µM
- concentration at 1.5 h [7]: 11.1 µM
- concentration at 2 h [7]: 10.6 µM
- concentration at 2.5 h [7]: 9.71 µM
- concentration at 3 h [7]: 9.14 µM
- concentration at 4 h [7]: 9.32 µM
- concentration at 5 h [7]: 7.36 µM
- concentration at 6 h [7]: 7.11 µM
- concentration at 8 h [7]: 6.71 µM
- concentration at 10 h [7]: 5.3 µM
- concentration at 12 h [7]: 4.78 µM
- concentration at 24 h (360 mg, BI 187004 plasma concentrations, gMean, 360 mg single oral, planned time 24 h): 2690 nM
- concentration at 36 h [7]: 1410 nM
- concentration at 48 h [7]: 814 nM
- concentration at 72 h [7]: 246 nM
- concentration at 96 h [7]: 72.3 nM
- concentration at 24 h (360 mg, C24 gMean (%gCV), 360 mg single oral dose): 2690 nM
